# Assays:
# zebrafish embryos = conditions: cited from earlier work
# A549 = conditions: at 100 μM; cited from earlier work
# MMP-2 = target: T1, MMP-2 (Homo sapiens, UniProt P08253); test: MMP in vitro inhibition assay, MMP-2; format: biochemical
# T1 sequence (P08253 110-660): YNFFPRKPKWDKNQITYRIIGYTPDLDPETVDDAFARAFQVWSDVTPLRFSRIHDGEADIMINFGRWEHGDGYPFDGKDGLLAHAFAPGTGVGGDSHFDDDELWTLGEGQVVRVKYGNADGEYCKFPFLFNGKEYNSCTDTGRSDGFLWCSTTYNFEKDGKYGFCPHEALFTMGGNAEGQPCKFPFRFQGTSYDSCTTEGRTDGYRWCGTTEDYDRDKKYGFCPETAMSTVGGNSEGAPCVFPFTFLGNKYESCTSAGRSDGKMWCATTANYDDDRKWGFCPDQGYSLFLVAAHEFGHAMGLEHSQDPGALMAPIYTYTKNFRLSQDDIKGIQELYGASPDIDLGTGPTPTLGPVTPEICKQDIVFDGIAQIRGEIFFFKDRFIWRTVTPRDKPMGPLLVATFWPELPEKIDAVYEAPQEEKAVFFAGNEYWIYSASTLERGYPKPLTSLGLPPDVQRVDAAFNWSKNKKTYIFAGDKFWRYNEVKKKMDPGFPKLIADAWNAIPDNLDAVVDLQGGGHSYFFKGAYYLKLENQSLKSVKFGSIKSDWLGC
# MMP-8 = MMP-8 (Homo sapiens, UniProt P22894); test: MMP in vitro inhibition assay, MMP-8; format: biochemical
# HDAC-8 = target: T2, HDAC-8 (Homo sapiens, UniProt Q9BY41); test: HDAC in vitro inhibition assay; format: biochemical
# T2 sequence (Q9BY41 1-377): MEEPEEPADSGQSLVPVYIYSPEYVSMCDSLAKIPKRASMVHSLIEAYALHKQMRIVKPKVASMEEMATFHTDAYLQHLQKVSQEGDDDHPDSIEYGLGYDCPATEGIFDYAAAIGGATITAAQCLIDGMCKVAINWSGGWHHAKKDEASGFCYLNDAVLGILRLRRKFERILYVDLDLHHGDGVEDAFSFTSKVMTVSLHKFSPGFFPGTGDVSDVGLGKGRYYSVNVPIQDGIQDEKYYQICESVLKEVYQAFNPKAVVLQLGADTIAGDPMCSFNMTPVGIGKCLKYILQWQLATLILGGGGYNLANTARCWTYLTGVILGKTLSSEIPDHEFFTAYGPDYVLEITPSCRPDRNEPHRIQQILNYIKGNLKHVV
# HEK293 = conditions: at 100 μM; cited from earlier work
# MMP-1 = target: T3, MMP-1 (Homo sapiens, UniProt P03956); test: MMP in vitro inhibition assay, MMP-1; format: biochemical
# T3 sequence (P03956 100-469): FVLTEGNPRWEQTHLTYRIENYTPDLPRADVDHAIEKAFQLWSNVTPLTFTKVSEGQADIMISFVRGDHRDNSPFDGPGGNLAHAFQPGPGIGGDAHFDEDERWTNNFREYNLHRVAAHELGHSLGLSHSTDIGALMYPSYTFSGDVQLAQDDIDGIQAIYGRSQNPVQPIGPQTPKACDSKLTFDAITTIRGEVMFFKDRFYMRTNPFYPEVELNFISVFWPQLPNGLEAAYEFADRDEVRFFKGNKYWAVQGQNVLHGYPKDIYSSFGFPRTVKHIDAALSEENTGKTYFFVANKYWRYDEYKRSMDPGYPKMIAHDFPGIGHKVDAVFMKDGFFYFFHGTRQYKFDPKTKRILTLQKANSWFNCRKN
# MMP-14 = MMP-14 (Homo sapiens, UniProt P50281); test: MMP in vitro inhibition assay, MMP-14; format: biochemical
# collagenase H (ColH) = conditions: cited from earlier work; for ColH inhibitory activity: tested in their thiocarbamate form
# HDAC-3 = HDAC-3 (Homo sapiens, UniProt O15379); format: biochemical
# MMP-3 = MMP-3 (Homo sapiens, UniProt P08254); test: MMP in vitro inhibition assay, MMP-3; format: biochemical
# MMP-7 = target: T4, MMP-7 (Homo sapiens, UniProt P09237); test: MMP in vitro inhibition assay, MMP-7; format: biochemical
# T4 sequence (P09237 95-267): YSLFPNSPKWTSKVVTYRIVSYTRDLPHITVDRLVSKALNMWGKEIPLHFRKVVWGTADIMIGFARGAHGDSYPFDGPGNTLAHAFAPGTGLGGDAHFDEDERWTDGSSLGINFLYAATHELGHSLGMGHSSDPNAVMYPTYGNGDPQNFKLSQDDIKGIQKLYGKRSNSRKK
# HepG2 = conditions: at 100 μM; cited from earlier work
# [1] = test system: Galleria mellonella larvae infection model; conditions: cited from earlier work
# [2] = test system: NDM-1-expressing K. pneumoniae (T2301); test: Growth inhibition assay; conditions: imipenem alone at 8 μg mL−1 (0.5× MIC)
# Chain of MMP-8 (P22894 101-467): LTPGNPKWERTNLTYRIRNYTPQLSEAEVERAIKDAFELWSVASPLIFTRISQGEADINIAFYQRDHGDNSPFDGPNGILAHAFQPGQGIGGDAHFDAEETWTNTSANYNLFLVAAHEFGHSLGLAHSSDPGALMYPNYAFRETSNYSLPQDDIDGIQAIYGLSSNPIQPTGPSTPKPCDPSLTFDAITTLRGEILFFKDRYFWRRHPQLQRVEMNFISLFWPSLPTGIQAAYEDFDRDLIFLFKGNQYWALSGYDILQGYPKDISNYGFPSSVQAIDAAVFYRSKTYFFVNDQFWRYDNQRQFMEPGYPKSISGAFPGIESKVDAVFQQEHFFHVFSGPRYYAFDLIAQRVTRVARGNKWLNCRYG
# Chain of MMP-3 (P08254 100-477): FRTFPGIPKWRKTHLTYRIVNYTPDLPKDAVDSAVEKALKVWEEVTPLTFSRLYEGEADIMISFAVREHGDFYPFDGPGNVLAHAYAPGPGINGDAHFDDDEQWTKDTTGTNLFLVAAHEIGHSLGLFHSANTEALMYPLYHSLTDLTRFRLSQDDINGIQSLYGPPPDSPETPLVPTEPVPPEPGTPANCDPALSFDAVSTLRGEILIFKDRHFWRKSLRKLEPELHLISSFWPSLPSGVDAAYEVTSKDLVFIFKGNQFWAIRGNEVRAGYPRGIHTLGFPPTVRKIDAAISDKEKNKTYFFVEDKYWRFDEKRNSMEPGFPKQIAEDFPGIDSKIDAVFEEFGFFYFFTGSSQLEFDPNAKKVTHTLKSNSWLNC
# Chain of HDAC-3 (O15379 whole entry): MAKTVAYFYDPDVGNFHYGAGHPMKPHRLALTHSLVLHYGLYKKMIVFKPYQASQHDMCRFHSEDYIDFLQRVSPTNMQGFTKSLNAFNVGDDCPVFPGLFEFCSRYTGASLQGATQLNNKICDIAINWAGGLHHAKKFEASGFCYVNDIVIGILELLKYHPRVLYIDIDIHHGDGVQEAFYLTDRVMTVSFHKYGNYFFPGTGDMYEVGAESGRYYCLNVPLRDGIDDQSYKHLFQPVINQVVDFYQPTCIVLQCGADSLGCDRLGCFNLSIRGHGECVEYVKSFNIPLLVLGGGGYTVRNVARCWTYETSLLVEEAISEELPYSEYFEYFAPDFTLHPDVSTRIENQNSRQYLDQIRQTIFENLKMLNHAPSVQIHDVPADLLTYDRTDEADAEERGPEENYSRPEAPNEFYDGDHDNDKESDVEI
# Chain of HDAC-3 (Q9Y618 395-489 partner limits assumed): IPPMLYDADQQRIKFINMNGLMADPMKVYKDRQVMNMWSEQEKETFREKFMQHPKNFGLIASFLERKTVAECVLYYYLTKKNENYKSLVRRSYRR
compound,measurement,setting,value
O=C(CS)Nc1ccc(Cl)c(Cl)c1 [Compound 1],maximum tolerated concentration (MTC),zebrafish embryos,10 µM
same,cytotoxicity against A549,A549,did not show any cytotoxicity
same,"inhibition at 100 μM, MMP-2",MMP-2; 100 μM,no inhibition
same,inhibition at 100 µM,"MMP-2; read-out: inhibition at 100 μM, MMP-2",≤ 10%
same,"inhibition at 100 μM, MMP-8",MMP-8; 100 μM,no inhibition
same,inhibition at 100 µM,"MMP-8; read-out: inhibition at 100 μM, MMP-8",≤ 10%
same,"inhibition at 100 μM, HDAC-8",HDAC-8,no inhibition
same,cytotoxicity against HEK293,HEK293,did not show any cytotoxicity
same,"inhibition at 100 μM, MMP-1",MMP-1; 100 μM,no inhibition
same,inhibition at 100 µM,"MMP-1; read-out: inhibition at 100 μM, MMP-1",≤ 10%
same,"inhibition at 100 μM, MMP-14",MMP-14; 100 μM,no inhibition
same,inhibition at 100 µM,"MMP-14; read-out: inhibition at 100 μM, MMP-14",≤ 10%
same,ColH inhibitory activity,collagenase H (ColH),micromolar activities
same,"inhibition at 100 μM, HDAC-3",HDAC-3,no inhibition
same,"inhibition at 100 μM, MMP-3",MMP-3; 100 μM,no inhibition
same,inhibition at 100 µM,"MMP-3; read-out: inhibition at 100 μM, MMP-3",≤ 10%
same,"inhibition at 100 μM, MMP-7",MMP-7; 100 μM,no inhibition
same,inhibition at 100 µM,"MMP-7; read-out: inhibition at 100 μM, MMP-7",≤ 10%
same,cytotoxicity against HepG2,HepG2,did not show any cytotoxicity
same,in vivo efficacy,[1],in vivo efficacy
O=C(CS)Nc1ccccc1Cl [Compound 26],ColH inhibitory activity,collagenase H (ColH),micromolar activities
CC(=O)c1ccc(NC(=O)CS)cc1 [Compound 28],ColH inhibitory potency,collagenase H (ColH),nanomolar
C[C@@H](O)[C@H]1C(=O)N2C(C(=O)O)=C(SCCNC=N)C[C@H]12 [imipenem],Growth of imipenem-treated bacteria vs imipenem-free control after 24 hours,[2],no relevant differences
